Our source for the GI50 and TGI values is PubChem BioAssay (NCI).

Molecules are shown by their SMILES. “And” between values parts separate entries of the source, which are not always exact repeats. Equal entries are not always repeated.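 Results reflect a 48-hour exposure of cells in 96-well plates to compound at five concentrations. GI50 is the concentration that inhibits growth by half. The concentration for full growth arrest is given as TGI.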 Where only a bound is given, the exact number is not on record here.

Among the test systems are A549 NSCLC; HCT-15 colon; HS 578T breast; SF-268 CNS; SK-MEL-5 melanoma; HCC-2998 colon; PC-3 prostate; OVCAR-3 ovarian; HL-60(TB) leukemia; SK-MEL-2 melanoma.
Holding throughout (test): NCI-60 cell line screen, 48 h

Regarding `O=C(/C(=C/c1cccc([N+](=O)[O-])c1)c1ccccc1)c1ccccc1`, the GI50 was 4.31 µM in the experiment on A549 NSCLC; 2.75 µM with HCT-15 colon; 3.89 µM in the experiment with HS 578T breast; 3.9 µM with SF-268 CNS; 2.39 µM with SK-MEL-5 melanoma; 2.54 µM in the experiment on HCC-2998 colon. Moreover, the GI50 with PC-3 prostate was 4.54 µM; in the experiment with OVCAR-3 ovarian it was 3.66 µM. In addition, the TGI in the experiment with A549 NSCLC was 30.1 µM; with HCT-15 colon, 16.5 µM; in the experiment on HS 578T breast, above 100 µM; with SF-268 CNS it was 15.5 µM; in the experiment with SK-MEL-5 melanoma, 6.73 µM; with HCC-2998 colon it was 6.27 µM. The results for the TGI in the experiment on PC-3 prostate and with OVCAR-3 ovarian were 36.2 µM and 10.9 µM, respectively.
In the case of `CC(=O)O.[Au].c1ccc([PH+](c2ccccc2)c2ccccc2)cc1`, the GI50 with A549 NSCLC was 18.8 µM; in the experiment on HCT-15 colon, 1.56 µM; with HL-60(TB) leukemia, 0.0578 µM; in the experiment with SF-268 CNS, 3.05 µM; with SK-MEL-5 melanoma, 1.26 µM; in the experiment on HCC-2998 colon, 7 µM. Moreover, the GI50 in the experiment on SK-MEL-2 melanoma is 3.24 µM; with OVCAR-3 ovarian, 2.43 µM. In addition, the TGI with A549 NSCLC came out at 66.1 µM; in the experiment on HCT-15 colon, 3.15 µM; with HL-60(TB) leukemia, 0.266 µM; with SF-268 CNS, 11.5 µM; with SK-MEL-5 melanoma, 2.9 µM; in the experiment with HCC-2998 colon, 15.2 µM. Also, the values for the TGI in the experiment on SK-MEL-2 melanoma and in the experiment with OVCAR-3 ovarian were 8.47 µM and 5.52 µM, respectively.
Regarding `CC(C)CCCC(=O)CCCCCCC(=O)CCN(O)C(=O)C(N)CO` (stereo not given), the TGI in the experiment on HCT-15 colon was determined as 42.6 µM; in the experiment with HS 578T breast, 68.8 µM; in the experiment with HL-60(TB) leukemia, 60.2 µM; in the experiment with SF-268 CNS, 60 µM; in the experiment on SK-MEL-5 melanoma, 43.7 µM; in the experiment on PC-3 prostate, 28.2 µM. Also, the figures for the TGI with SK-MEL-2 melanoma and with OVCAR-3 ovarian were 39.5 µM and 41.6 µM, respectively.
On to `COc1cc2c3c(n(CCCCOC(=O)C(Cl)(Cl)Cl)c(=O)c2cc1OC)-c1cc2c(cc1C3=O)OCO2`, for which the GI50 with A549 NSCLC is above 100 µM; in the experiment on HCT-15 colon, above 100 µM; with HS 578T breast, 94.7 µM; with HL-60(TB) leukemia, above 100 µM; in the experiment on SF-268 CNS, 30 µM; in the experiment on SK-MEL-5 melanoma, above 100 µM. In addition, the GI50 with PC-3 prostate, in the experiment on SK-MEL-2 melanoma and in the experiment with OVCAR-3 ovarian was above 100 µM each time. Moreover, the TGI with A549 NSCLC, in the experiment with HCT-15 colon, in the experiment with HS 578T breast, in the experiment with HL-60(TB) leukemia, in the experiment with SF-268 CNS and with SK-MEL-5 melanoma was above 100 µM throughout. The TGI with PC-3 prostate, in the experiment with SK-MEL-2 melanoma and in the experiment on OVCAR-3 ovarian was above 100 µM in each case.
For `NCCCn1c2c(c3ccc([N+](=O)[O-])cc3c1=O)C(=O)c1cc(Br)ccc1-2`, the GI50 in the experiment on A549 NSCLC is 0.0897 µM; in the experiment on HCT-15 colon, 0.035 µM; in the experiment with HS 578T breast, 0.105 µM; in the experiment on SF-268 CNS, 0.00358 µM; in the experiment on SK-MEL-5 melanoma, 0.0265 µM and 0.0338 µM; in the experiment with HCC-2998 colon, 0.154 µM. Moreover, the GI50 was 0.101 µM and 0.0286 µM with PC-3 prostate; 0.254 µM in the experiment with OVCAR-3 ovarian. Moreover, the TGI with A549 NSCLC was 0.245 µM; with HCT-15 colon, 0.155 µM and 0.0641 µM; with SF-268 CNS it was 0.142 µM; in the experiment with SK-MEL-5 melanoma, 0.15 µM and 0.251 µM; with PC-3 prostate it was 0.412 µM and 0.312 µM.
Turning to `CC(C)(C)c1ccc(O)c(CN(Cc2cc(C(C)(C)C)ccc2O)c2ccccc2)c1`, the TGI was found to be 35.9 µM in the experiment with A549 NSCLC; 35.8 µM in the experiment on HCT-15 colon; 42 µM in the experiment on HS 578T breast; 38.3 µM with SF-268 CNS; 28.5 µM in the experiment with SK-MEL-5 melanoma; 42.1 µM with PC-3 prostate. In addition, the TGI was found to be 33.3 µM in the experiment on SK-MEL-2 melanoma and 34.1 µM with OVCAR-3 ovarian.
`COc1ccc2nc3cc(Cl)ccc3c(NCCN)c2c1`: the GI50 in the experiment on HCT-15 colon is 1.87 µM; with HL-60(TB) leukemia, 2.16 µM; in the experiment with PC-3 prostate, 1.72 µM; in the experiment on SK-MEL-2 melanoma, 14.5 µM. For the same compound, the TGI with HCT-15 colon turned out to be 3.9 µM; in the experiment with HL-60(TB) leukemia it was 4.67 µM; with PC-3 prostate, 3.38 µM; in the experiment on SK-MEL-2 melanoma, 31.2 µM.
For `CC1(C)N=C(N)N=C(N)N1c1ccc(OCc2ccc(S(=O)(=O)F)c(Cl)c2)c(Cl)c1`, the GI50 is 0.499 µM with A549 NSCLC; 0.586 µM in the experiment on HCT-15 colon; 1.35 µM with HL-60(TB) leukemia; 2.85 µM with SF-268 CNS; 1.03 µM in the experiment with SK-MEL-5 melanoma; 4.97 µM in the experiment with HCC-2998 colon. The figures for the GI50 in the experiment with PC-3 prostate, with SK-MEL-2 melanoma and in the experiment on OVCAR-3 ovarian were 0.502 µM, above 100 µM and 4.69 µM, respectively. Besides, the TGI with A549 NSCLC, in the experiment with HCT-15 colon, in the experiment with HL-60(TB) leukemia, with SF-268 CNS, with SK-MEL-5 melanoma and in the experiment with HCC-2998 colon was above 100 µM each time. Further, the TGI in the experiment on PC-3 prostate, with SK-MEL-2 melanoma and in the experiment with OVCAR-3 ovarian was above 100 µM in each case.
As for `CSc1nc2cc(S(=O)(=O)N3CCCCC3)ccc2s1`, the TGI in the experiment with A549 NSCLC, in the experiment with HCT-15 colon, in the experiment with HS 578T breast, in the experiment on HL-60(TB) leukemia, in the experiment on SF-268 CNS and in the experiment with SK-MEL-5 melanoma was above 100 µM in each case. The TGI in the experiment with PC-3 prostate, in the experiment with SK-MEL-2 melanoma and in the experiment on OVCAR-3 ovarian was above 100 µM each time.
On to `c1cc[c]([Pb]([c]2ccccc2)[c]2ccccc2)cc1`, for which the GI50 in the experiment on A549 NSCLC is 60 µM; in the experiment on HCT-15 colon, 12.4 µM; with HL-60(TB) leukemia it was 41.9 µM; with SF-268 CNS, 7.34 µM; in the experiment with SK-MEL-5 melanoma, 12.3 µM; in the experiment on HCC-2998 colon, 14.8 µM. In addition, the GI50 with SK-MEL-2 melanoma was 6.04 µM; in the experiment with OVCAR-3 ovarian, 10.4 µM. Moreover, the TGI with A549 NSCLC is above 100 µM; in the experiment with HCT-15 colon, 28.4 µM; in the experiment on HL-60(TB) leukemia, above 100 µM; in the experiment on SF-268 CNS it was 50.7 µM; in the experiment on SK-MEL-5 melanoma, 32.6 µM; in the experiment on HCC-2998 colon it was 37.3 µM. For the same compound, the TGI in the experiment on SK-MEL-2 melanoma is 24 µM; with OVCAR-3 ovarian it was 23.8 µM.
